Measurements published in patent publication US20080129961A1, “METHOD AND APPARATUS FOR MEASURING QUANTITY OF A FLUOROCHROME IN A BIOLOGICAL ENVIRONMENT” (priority 2006, published 2008).

Columns and labels:
[1] = pH stability of ICG emission intensity; type: physicochemical
[2] = Solubility and fluorescence behaviour of ICG in serum and vitreous humor
Experimental: ICG (Acros Organics, Fair Lawn, N.J.) was dissolved in PBS, pH 7.4, with 0.1% Tween 20 at 25° C. to make the aqueous standards. Fluorescence of a series of 1:2 dilutions were made with a spectrofluorometer beginning with a maximum concentration of 100 ng/ml down to a “blank” comprising PBS, pH 7.4, with 0.1% Tween with essentially no ICG (only trace amounts).

## CC1(C)C(/C=C/C=C/C=C/C=C2\N(CCCCS(=O)(=O)[O-])c3ccc4ccccc4c3C2(C)C)=[N+](CCCCS(=O)(=O)[O-])c2ccc3ccccc3c21.[Na+] [ICG, indocyanin green]
[1]
  pH range across which emission intensity is stable: 5-10 pH
[2]; first dissolved in PBS, pH 7.4, 0.1% Tween 20 (≧1000 ng/ml), then mixed with bovine vitreous humor or human serum
  solubility in serum and vitreous humor after pre-dissolution: remain in solution
[2]; first dissolved in PBS, pH 7.4, 0.1% Tween 20, then mixed with bovine vitreous humor or human serum
  spectra and quantum yield in serum and vitreous humor compared to ICG in PBS with 0.1% Tween 20: maintain its spectra and quantum yield
[2]; mixed directly with serum or vitreous humor
  solubility when mixed directly with serum or vitreous humor: not completely soluble
